Test results from patent publication US20070212428A1, “METHODS AND COMPOSITIONS FOR TREATING MOOD DISORDER” (MOOD MANAGEMENT SCIENCES, INC., priority 2004, published 2007).
Where a name gives a salt, the structure may show the parent alone. Read-outs that look alike come from different tables or passages of the source.

Legend:
[1] = cited from earlier work; for time to peak plasma concentration: after oral dosing
Dysthymia [2] = assay: Example 10: case, dysthymia with general anxiety disorder; conditions: earlier treatment with 40 mg
[3] = test system: dopamine neuronal reuptake; conditions: cited from earlier work
[4] = test system: muscarinic, histaminergic, or a-l adrenergic receptors; conditions: in vitro; cited from earlier work
[5] = cited from earlier work
[6] = test system: norepinephrine neuronal reuptake; conditions: cited from earlier work
[7] = test system: neuronal serotonin reuptake; conditions: cited from earlier work
[8] = test system: dopaminergic, adrenergic, cholinergic, or histaminergic receptors; conditions: in vitro; cited from earlier work
monoamine oxidase = conditions: cited from earlier work
human plasma proteins = conditions: cited from earlier work
Dysthymia [9] = assay: Example 12: method for treating Dysthymia (a person); format: in vivo, human; conditions: 10 years prior; 60 mg fluvoxamine, 40 mg paroxetine
[10] = human, in vivo; cited from earlier work
[11] = co-administered with venlafaxine
[12] = 30 mg oral dose, over a 10 day period

CN(C)CCCC1(c2ccc(F)cc2)OCc2cc(C#N)ccc21 (racemic) [citalopram, (±)-1-[3-(dimethylamino)propyl]-1-(4-fluorophenyl)-1,3-dihydro-5-isobenzofuran carbonitrile, hydrobromide]
time to peak plasma concentration [1]: four | time to steady state plasma concentrations ([1]; daily dosing): a week | increase of half life in elderly patients [1]: 23-50% | elimination half-life ([1]; plasma): about 35 hours

CNCCC(Oc1ccc(C(F)(F)F)cc1)c1ccccc1.Cl (racemic) [fluoxetine, (±)-N-methyl-3-phenyl-[(α,α,α-trifluoro-p-tolyl)oxyl]propylamine hydrochloride]
effect on depressive symptoms (Dysthymia [2]): decreased depressive symptoms | adverse effect (Dysthymia [2]; subsequently discontinued): “dulled” the patient cognitively | half life ([1]; following acute administration): 24 to 72 h

COc1ccc(C(CN(C)C)C2(O)CCCCC2)cc1.Cl (racemic) [venlafaxine, (R/S)-1-[2-(dimethylamino)-1-(4-methoxyphenyl)ethyl] cyclohexanol hydrochloride]
effect on dopamine reuptake (in words) [3]: weak inhibitors | affinity [4]: not significant affinity | steady-state pharmacokinetics ([5]; venlafaxine 150 mg/day with a single 600 mg oral dose of lithium, 12 healthy males): unaffected | oral absorption (in words) ([1]; oral administration): well absorbed | elimination half-life ([1]; plasma): 3 to 7 h | fraction renally excreted within 48 hours ([1]; single dose): 87% | effect on norepinephrine reuptake (in words) [6]: potent inhibitors

NC(=O)N1c2ccccc2CC(O)c2ccccc21 (centres unmarked) [MHD]
elimination half-life ([1]; human, in vivo): about 9 hours

CN(C)CC(c1ccc(O)cc1)C1(O)CCCCC1 (centres unmarked) [ODV, O-desmethylvenlafaxine]
inhibition of serotonin reuptake (in words) [7]: potent inhibitors | effect on dopamine reuptake (in words) [3]: weak inhibitors | affinity [4]: not significant affinity | elimination half-life ([1]; human, in vivo): 9 to 13 h | effect on norepinephrine reuptake (in words) [6]: potent inhibitors

Clc1ccc2c(c1)C(N1CCNCC1)=Nc1ccccc1O2 [amoxapine, 2-Chloro-11-(1-piperazinyl)dibenz-[b,f][1,4]oxazepine]
time to peak plasma concentration [1]: approximately 90 minutes | oral absorption (in words) ([1]; oral administration): absorbed rapidly

CN(C)CCCN1c2ccccc2Sc2ccc(Cl)cc21 [chlorpromazine, 10-(3-dimethylaminopropyl)-2-chlorphenothiazine]
oral absorption (in words) ([1]; oral administration): readily absorbed | elimination half-life ([1]; plasma): approximately 30 hours

O=c1ccc2ccc(OCCCCN3CCN(c4cccc(Cl)c4Cl)CC3)cc2[nH]1 [dehydro-aripiprazole]
pharmacokinetics ([5]; lithium (1200-1800 mg/day) for 21 days with aripiprazole (30 mg/day)): did not result in clinically significant changes

CNCC[C@H](Oc1cccc2ccccc12)c1cccs1.Cl [duloxetine, (+)-(S)-N-methyl-γ-(1-naphthyloxy)-2-thiophenepropylamine hydrochloride]
affinity [8]: no significant affinity | inhibition of monoamine oxidase (monoamine oxidase): does not inhibit

CN(C)CCC[C@@]1(c2ccc(F)cc2)OCc2cc(C#N)ccc21 [escitalopram, S-(+)-1-[3-(dimethylamino)propyl]-1-(p-fluorophenyl)-5-phthalancarbonitrile oxalate]
effect on dopamine reuptake (in words) [3]: minimal effects | binding to human plasma proteins (human plasma proteins): approximately 56% | time to peak plasma concentration [1]: about 5 hours | time to steady state plasma concentrations ([1]; daily dosing): a week | increase of half life in elderly patients [1]: approximately 50% | elimination half-life ([1]; plasma): 27 to 32 h | effect on norepinephrine reuptake (in words) [6]: minimal effects

COCCCC/C(=N\OCCN)c1ccc(C(F)(F)F)cc1 [fluvoxamine]
outcome of prior antidepressant trials (Dysthymia [9]): unsuccessfully

O=C(CCCN1CCC(O)(c2ccc(Cl)cc2)CC1)c1ccc(F)cc1 [haloperidol, 4-[4-(p-chlorophenyl)-4-hydroxypiperidino]-4′-fluorobutyrophenone]
half life [5, 11]: unchanged | increase of peak plasma concentration (Cmax) [5, 11]: 88% | increase in the area under the plasma concentration curve ([5]; single 2 mg dose of haloperidol with venlafaxine 150 mg/day): 70% | time to peak plasma level ([1]; after i.m. injection): about 20 minutes

CC[C@@H](C(N)=O)N1CCCC1=O [levetiracetam, (−)-(S)-α-ethyl-2-oxo-1-pyrrolidine acetamide]
time to peak plasma concentration [1]: about an hour | reduction of clearance ([1]; moderate renal impairment): 50% | oral absorption (in words) ([1]; oral administration): rapidly and almost completely absorbed | elimination half-life ([1]; plasma): approximately 7 hours | reduction of clearance ([1]; severe renal impairment): 60%

[Li] [lithium]
AUC and peak plasma concentrations of lithium ([5]; co-administered with risperidone): unaffected | kinetics of lithium ([5]; multiple doses of olanzapine (10 mg for 8 days)): did not influence | steady state kinetics of lithium ([5]; valproate (500 mg BID) with lithium carbonate (300 mg TID), normal male volunteers): not effect | steady-state pharmacokinetic parameters of lithium ([5]; with quetiapine (250 mg TID)): no effect | steady-state pharmacokinetics of lithium ([5]; with venlafaxine): unaffected | steady state level and renal clearance of lithium ([5]; ziprasidone (40 mg BID) with lithium (450 mg BID for 7 days)): not affected | CSF lithium level at equilibration relative to the plasma concentration ([1]; human, in vivo): approximately half | fraction eliminated with the feces ([1]; human, in vivo): less than 1% | fraction of a single dose eliminated in urine ([1]; human, in vivo): Approximately 95% | fraction of a single dose excreted in 24 hours ([1]; human, in vivo): About 50% | fraction of the filtered lithium reabsorbed in the tubules ([1]; human, in vivo): 80% | oral absorption (in words) ([1]; oral administration): rapidly absorbed | time to steady state plasma concentrations ([1]; repeated dosing): five to six

CN1CCN(C2=Nc3ccccc3Oc3ccc(Cl)cc32)CC1 [loxapine succinate, 2-Chloro-11-(4-methyl-1-piperazinyl)dibenz[b,f][1,4]oxazepine]
oral absorption (in words) ([1]; oral administration): virtually complete | time of excretion ([1]; oral administration): mainly in the first 24 hours

CNCCCC12CCC(c3ccccc31)c1ccccc12 [maprotiline, N-Methyl-9,10-ethanoanthracene-9(10H)-propanamine]
oral absorption (in words) ([1]; oral administration): completely absorbed

NC(=O)C[S+]([O-])C(c1ccccc1)c1ccccc1 (centres unmarked) [modafinil, 2-[(diphenylmethyl)sulfinyl]acetamide]
time to peak plasma concentration [1]: 2 to 4 h | oral absorption (in words) ([1]; oral administration): rapid

CCc1nn(CCCN2CCN(c3cccc(Cl)c3)CC2)c(=O)n1CCOc1ccccc1 [nefazodone, 2-[3-[4-(3-chlorophenyl)-1-piperazinyl]propyl]-5-ethyl-2,4-dihydro-4-(2-phenoxyethyl)-3H-,1,2,4-triazo-3-one monohydrochloride]
elimination half-life ([1]; plasma): 2 to 4 h

NC(=O)N1c2ccccc2CC(=O)c2ccccc21 [oxcarbazepine, 10,11-dihydro-10-oxo-5H-dibenzo[b,f]azepine-5-carboxamide]
tolerability of dose [10]: not be able to tolerate | elimination half-life ([1]; plasma): about 2 hours

Fc1ccc([C@@H]2CCNC[C@H]2COc2ccc3c(c2)OCO3)cc1 [paroxetine, (−)-trans-4R-(4′-fluorophenyl)-3S-[(3′,4′-methylenedioxyphenloxy)methyl]piperidine hydrochloride hemihydrate]
effect on dopamine reuptake (in words) [3]: only very weak effects | outcome of prior antidepressant trials (Dysthymia [9]): unsuccessfully | fraction of dose renally excreted [1, 12]: Approximately 64% | fraction of dose renally excreted as metabolites [1, 12]: 62% | fraction of dose renally excreted as the parent compound [1, 12]: 2% | fraction of dose excreted in the feces ([1]; 30 mg oral dose): 36% | oral absorption (in words) ([1]; oral administration): completely absorbed | time to steady state plasma concentrations ([1]; repeated dosing): approximately 10 days | effect on norepinephrine reuptake (in words) [6]: only very weak effects

NNCCc1ccccc1 [phenelzine sulfate, (2-phenethyl)hydrazine]
inhibition of monoamine oxidase (monoamine oxidase): potent inhibitor | time to peak plasma concentration [1]: 0.717 h | elimination half-life ([1]; plasma): 11.6 h

CSc1ccc2c(c1)N(CCC1CCCCN1C)c1ccccc1S2 (centres unmarked) [thioridazine, 2-methylmercapto-10-[2-(N-methyl-2-piperidyl)ethyl]phenothiazine]
elimination half-life ([1]; plasma): approximately 10 hours

CC1(C)O[C@@H]2[C@@H](CO[C@@]3(COS(N)(=O)=O)OC(C)(C)O[C@@H]23)O1 [topiramate, 2,3:4,5-Di-O-isopropylidene-β-D-fructopyranose sulfamate]
time to peak plasma concentration [1]: approximately 2 hours | reduction of clearance ([1]; moderate renal impairment): 42% | oral absorption (in words) ([1]; oral administration): rapid | time to steady state plasma concentrations ([1]; repeated dosing): about 4 days | reduction of clearance ([1]; severe renal impairment): 54%

O=c1n(CCCN2CCN(c3cccc(Cl)c3)CC2)nc2ccccn12 [trazodone, 2-[3-[4-(3-chlorophenyl)-1-piperazinyl]propyl]-1,2,4-triazolo[4,3-a]pyridin-3(2H)-one]
time to peak plasma levels ([1]; taken with food): two

CCCC(CCC)C(=O)O [valproate, sodium hydrogen bis(2-propylpentanoate)]
effect on each drug's metabolism ([5]; olanzapine co-administered with valproate): little effect

NS(=O)(=O)Cc1noc2ccccc12 [zonisamide, 1,2-benzisoxazole-3-methanesulfonamide]
time to peak plasma concentration [1]: 2 to 6 h | elimination half-life ([1]; plasma): about 63 hours | elimination half-life in RBC ([1]; red blood cells): approximately 105 hours | time to steady state plasma concentrations ([1]; repeated dosing): ≤ 14 days
